Experimental data taken from patent US20260217687A1 (NeoPhore Limited, priority 2023, published 2026).

Each compound was assayed against T1, recombinant N-terminal MLH1 (residues 15-340) (Homo sapiens, UniProt P40692) (assay: Fluorescence Polarisation Assay for MLH1). Conditions: 100 nM N-terminal MLH1, 5 nM probe compound.
T1 construct: recombinant N-terminal MLH1 (residues 15-340)
T1 sequence (P40692 15-340): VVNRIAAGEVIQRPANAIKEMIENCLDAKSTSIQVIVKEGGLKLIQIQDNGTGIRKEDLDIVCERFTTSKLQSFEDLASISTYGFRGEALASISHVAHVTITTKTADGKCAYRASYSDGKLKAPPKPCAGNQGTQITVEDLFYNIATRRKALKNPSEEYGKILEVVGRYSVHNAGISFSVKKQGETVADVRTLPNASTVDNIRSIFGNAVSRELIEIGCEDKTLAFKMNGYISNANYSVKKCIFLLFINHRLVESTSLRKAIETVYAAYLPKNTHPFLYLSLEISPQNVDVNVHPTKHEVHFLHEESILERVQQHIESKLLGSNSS
Type: binding
Summary of the method: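 Fluorescence polarisation displacement: 100 nM MLH1 (15-340) preincubated 30 min at room temperature with compound, then 5 nM rhodamine-labelled probe added and read immediately. Buffer 25 mM HEPES pH 7.5, 250 mM NaCl, 10 mM MgCl2, 0.01% Triton X-100, 5 mM DTT; normalised to no-inhibitor and no-enzyme controls.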

Row | IC50 | SMILES
1 | 1000 to 10000 nM | CN1CC(Oc2ccc3c(c2)CN(C(=O)c2c(O)cc(C#N)cc2OCc2ccccn2)C3)C1 [Example 10.37, 3-Hydroxy-4-(5-((1-methylazetidin-3-yl)oxy)isoindoline-2-carbonyl)-5-(pyridin-2-ylmethoxy)benzonitrile]
2 | 100 to 1000 nM | O=C(c1c(O)cc(C(F)F)cc1OCc1ccccc1)N1Cc2cc(Cn3ccnc3)cc(N[C@H]3CCOC3)c2C1 [Example 4.19, (S)-(6-((1H-Imidazol-1-yl)methyl)-4-((tetrahydrofuran-3-yl)amino)isoindolin-2-yl) (2-(benzyloxy)-4-(difluoromethyl)-6-hydroxyphenyl)methanone]
3 | 1000 to 10000 nM | N#Cc1cc(O)c(C(=O)N2Cc3cccc(Nc4cncnc4)c3C2)c(OCc2ccccc2)c1 [Example 10.4, 3-(Benzyloxy)-5-hydroxy-4-(4-(pyrimidin-5-ylamino)isoindoline-2-carbonyl)benzonitrile]
4 | 1000 to 10000 nM | O=C(c1c(O)cc(C(F)F)cc1OCc1ccccc1)N1CCc2ccccc2C1 [Example 4.35, (2-(Benzyloxy)-4-(difluoromethyl)-6-hydroxyphenyl)(3,4-dihydroisoquinolin-2(1H)-yl)methanone]
5 | 1000 to 10000 nM | N#Cc1cc(O)c(C(=O)N2CCc3ccc(NC4CCOC4)cc32)c(OCc2ccccc2)c1 (stereo not shown) [Example 27.3, 3-(Benzyloxy)-5-hydroxy-4-(6-((tetrahydrofuran-3-yl)amino)indoline-1-carbonyl)benzonitrile]
6 | 100 to 1000 nM | CC(=O)N1CC(Nc2cccc3c2CN(C(=O)c2c(O)cc(C#N)cc2OCc2ccccc2)C3)C1 [Example 16, 4-(4-((1-Acetylazetidin-3-yl)amino)isoindoline-2-carbonyl)-3-(benzyloxy)-5-hydroxybenzonitrile]
7 | 100 to 1000 nM | N#Cc1cc(O)c(C(=O)N2Cc3ccc(OC4CCOCC4)cc3C2)c(OCc2ccccc2)c1 [Example 10.36, 3-(Benzyloxy)-5-hydroxy-4-(5-((tetrahydro-2H-pyran-4-yl)oxy)isoindoline-2-carbonyl)benzonitrile]
8 | 100 to 1000 nM | O=C(c1c(O)cc(C(F)F)cc1OCc1ccccc1)N1Cc2ccc(Cn3ccnc3)cc2C1 [Example 4.50, (5-((1H-Imidazol-1-yl)methyl)isoindolin-2-yl)(2-(benzyloxy)-4-(difluoromethyl)-6-hydroxyphenyl)methanone]
9 | < 100 nM | CN(C)CCOc1cc2c(c(NC3CCCC3)c1)CN(C(=O)c1c(O)cc(C(F)F)cc1OCc1ccccc1)CC2 [Example 4.72, (2-(Benzyloxy)-4-(difluoromethyl)-6-hydroxyphenyl)(8-(cyclopentylamino)-6-(2-(dimethylamino)ethoxy)-3,4-dihydroisoquinolin-2(1H)-yl)methanone]
10 | 1000 to 10000 nM | N#Cc1cc(O)c(C(=O)N2CCc3cccnc32)c(OCc2ccccc2)c1 [Example 27.14, 3-(Benzyloxy)-4-(2,3-dihydro-1H-pyrrolo[2,3-b]pyridine-1-carbonyl)-5-hydroxybenzonitrile]
11 | 100 to 1000 nM | O=C(c1c(O)cc(C(F)F)cc1OCc1ccccn1)N1Cc2cccc(NC3COC3)c2C1 [Example 4.5, (4-(Difluoro methyl)-2-hydroxy-6-(pyridin-2-ylmethoxy)phenyl) (4-(oxetan-3-ylamino)isoindolin-2-yl) methanone]
12 | 1000 to 10000 nM | CN(C)CCOc1cccc2c1CCN2C(=O)c1c(O)cc(C#N)cc1OCc1ccccc1 [Example 27.12, 3-(Benzyloxy)-4-(4-(2-(dimethylamino)ethoxy)indoline-1-carbonyl)-5-hydroxybenzonitrile]
13 | < 100 nM | CN(C)CCOc1cc2c(c(N[C@H]3CCOC3)c1)CN(C(=O)c1c(O)cc(C#N)cc1OCc1ccccc1)CC2 [Example 15, (S)-3-(Benzyloxy)-4-(6-(2-(dimethylamino)ethoxy)-8-((tetrahydrofuran-3-yl)amino)-1,2,3,4-tetrahydroisoquinoline-2-carbonyl)-5-hydroxybenzonitrile]
14 | 100 to 1000 nM | CN1CC[C@@H](Nc2cccc3c2CN(C(=O)c2c(O)cc(C(F)F)cc2OCc2ccccc2)C3)C1=O [Example 4.14, (R)-3-((2-(2-(Benzyloxy)-4-(difluoromethyl)-6-hydroxybenzoyl)isoindolin-4-yl)amino)-1-methylpyrrolidin-2-one]
15 | < 100 nM | CN(C)CCOc1cc2c(c(N[C@H]3CCOC3)c1)CN(C(=O)c1c(O)cc(C(F)F)cc1OCc1ccccc1)C2 [Example 4.76]
16 | 100 to 1000 nM | O=C1OCCC1Nc1cccc2c1CN(C(=O)c1c(O)cc(C(F)F)cc1OCc1ccccc1)C2 (stereo not shown) [Example 4.16, 3-((2-(2-(Benzyloxy)-4-(difluoromethyl)-6-hydroxybenzoyl)isoindolin-4-yl)amino)dihydrofuran-2(3H)-one]

Row | IC50 | SMILES
17 | 1000 to 10000 nM | O=C(c1c(O)cc(C(F)F)cc1OCc1ccccc1)N1CCc2cccc(OC3CCOC3)c2C1 (stereo not shown) [Example 4.80]
18 | 100 to 1000 nM | CN1CC[C@@H](Oc2ccc3c(c2)CN(C(=O)c2c(O)cc(C(F)F)cc2OCc2ccccc2)CC3)C1 [Example 4.67, (R)-(2-(Benzyloxy)-4-(difluoromethyl)-6-hydroxyphenyl)(7-((1-methylpyrrolidin-3-yl)oxy)-3,4-dihydroisoquinolin-2(1H)-yl)methanone]
19 | 100 to 1000 nM | O=C(c1c(O)cc(C(F)F)cc1OCc1ccccc1)N1CCc2ccc(NC3CCOC3)cc21 (stereo not shown) [Example 27.2, (2-(Benzyloxy)-4-(difluoromethyl)-6-hydroxyphenyl)(6-((tetrahydrofuran-3-yl)amino)indolin-1-yl)methanone]
20 | 100 to 1000 nM | Cn1cncc1-c1cc2c(c(N[C@H]3CCOC3)c1)CN(C(=O)c1c(O)cc(C(F)F)cc1OCc1ccccc1)CC2 [Example 4.26, (S)-(2-(Benzyloxy)-4-(difluoromethyl)-6-hydroxyphenyl) (6-(1-methyl-1H-imidazol-5-yl)-8-((tetrahydrofuran-3-yl)amino)-3,4-dihydroisoquinolin-2(1H)-yl)methanone]
21 | < 100 nM | Cn1ncc2ccc(COc3cc(C(F)F)cc(O)c3C(=O)N3CCc4cccc(N[C@H]5CCOC5)c4C3)cc21 [Example 28, (S)-(4-(Difluoromethyl)-2-hydroxy-6-((1-methyl-1H-indazol-6-yl)methoxy)phenyl)(8-((tetrahydrofuran-3-yl)amino)-3,4-dihydroisoquinolin-2(1H)-yl)methanone]
22 | 100 to 1000 nM | CN(C)Cc1cc2c(c(N[C@H]3CCOC3)c1)CN(C(=O)c1c(O)cc(C(F)F)cc1OCc1ccccc1)C2 [Example 4.2, (S)-(2-(Benzyloxy)-4-(difluoromethyl)-6-hydroxyphenyl)(6-((dimethylamino)methyl)-4-((tetrahydrofuran-3-yl)amino)isoindolin-2-yl)methanone]
23 | 100 to 1000 nM | CN(C)Cc1ccc2c(c1)CN(C(=O)c1c(O)cc(C(F)F)cc1OCc1ccccc1)CC2 [Example 4.42, (2-(Benzyloxy)-4-(difluoromethyl)-6-hydroxyphenyl)(7-((dimethylamino)methyl)-3,4-dihydroisoquinolin-2(1H)-yl)methanone]
24 | 100 to 1000 nM | COCCOc1ccc2c(c1)CN(C(=O)c1c(O)cc(C(F)F)cc1OCc1ccccc1)C2 [Example 4.77, (2-(Benzyloxy)-4-(difluoromethyl)-6-hydroxyphenyl)(5-(2-methoxyethoxy)isoindolin-2-yl)methanone]
25 | 1000 to 10000 nM | COc1cc2c(c(N[C@@H]3CCOC3)c1)CN(C(=O)c1c(O)cc(Cl)cc1OCc1ccccc1)C2 [Example 10.1, (R)-(2-(Benzyloxy)-4-chloro-6-hydroxyphenyl)(6-methoxy-4-((tetrahydrofuran-3-yl)amino)isoindolin-2-yl)methanone]
26 | 100 to 1000 nM | CN(C)CCOc1nc2c(c(NC3CCOC3)n1)CN(C(=O)c1c(O)cc(C#N)cc1OCc1ccccc1)CC2 (stereo not shown) [Example 27.16, 3-(Benzyloxy)-4-(2-(2-(dimethylamino)ethoxy)-4-((tetrahydrofuran-3-yl)amino)-5,6,7,8-tetrahydropyrido[4,3-d]pyrimidine-6-carbonyl)-5-hydroxybenzonitrile]
27 | 100 to 1000 nM | CN(C)CCOc1cc2c(c(N[C@H]3CCOC3)c1)CN(C(=O)c1c(O)cc(C#N)cc1OCc1ccccc1)C2 [Example 19, (S)-3-(Benzyloxy)-4-(6-(2-(dimethylamino)ethoxy)-4-((tetrahydrofuran-3-yl)amino)isoindoline-2-carbonyl)-5-hydroxybenzonitrile]
28 | 100 to 1000 nM | CN1CCC(Oc2ccc3c(c2)CN(C(=O)c2c(O)cc(C#N)cc2OCc2ccccc2)C3)CC1 [Example 10.33, 3-(Benzyloxy)-5-hydroxy-4-(5-((1-methylpiperidin-4-yl)oxy)isoindoline-2-carbonyl)benzonitrile]
29 | 1000 to 10000 nM | N#Cc1cc(O)c(C(=O)N2Cc3cnc(N4CCOCC4)cc3C2)c(OCc2ccccc2)c1 [Example 27.8, 3-(Benzyloxy)-5-hydroxy-4-(6-morpholino-2,3-dihydro-1H-pyrrolo[3,4-c]pyridine-2-carbonyl)benzonitrile]
30 | 1000 to 10000 nM | COc1cc(C#N)cc(O)c1C(=O)N1Cc2cccc(N[C@H]3CCOC3)c2C1 [Example 12.1, (S)-3-Hydroxy-5-methoxy-4-(4-((tetrahydrofuran-3-yl)amino)isoindoline-2-carbonyl)benzonitrile]
31 | < 100 nM | CN(C)CCOc1cc2c(c(N[C@@H]3CCOC3)c1)CN(C(=O)c1c(O)cc(Cl)cc1OCc1ccccc1)CC2 [Example 21, (R)-(2-(Benzyloxy)-4-chloro-6-hydroxyphenyl)(6-(2-(dimethylamino)ethoxy)-8-((tetrahydrofuran-3-yl)amino)-3,4-dihydroisoquinolin-2(1H)-yl)methanone]
